Assay results published in patent publication US20250304914A1, “METHODS OF PRODUCING ENGINEERED IMMUNE CELLS” (Takeda Pharmaceutical Company Limited, priority 2022, published 2025).

What was measured:
Type in all cases: cell-based
NK92 cells = test: Introduction of mCherry gene into NK92 cells, flow cytometry
Experimental: NK92 cell culture medium: RPMI, L-Gln (+) (Thermo Fisher Scientific) was prepared by adding 20% FBS (Biosera Co., Ltd.). Dimethyl Sulfoxide (DMSO) (Wako Pure Chemical Industries, Ltd) was added to the respective media to obtain the designated levels and used. NK92 cells (ATCC) were diluted with NK92 cell culture medium so that they were 2.0×10^6 cells/mL or less, seeded under 6.07×10^5 cells/cm^2 on culture plates with or without DMSO for 2 days. After that, NK92 cells were cultured on retronectin (Takara Bio Co., Ltd.) and a retrovirus into which a mCherry gene had been introduced, and cultured for 2 days to introduce the mCherry gene into NK92 cells. mCherry positive NK92 cells were produced as described above. DMSO from 0.01% to 0.1% was added in the pre-cultre step before transduction during its production. After production, the rate of introduction of the mCherry-gene was measured by flow cytometry.

T cells [1] = test: Immune phenotype of T cells by flow cytometry (naive and stem cell memory T cells, CAR-T production)
Experimental: (§1) CAR-T cell culture medium: 2.6% OpTmizer Expansion Basal Supplement (Thermo Fisher Scientific), 1% L-Glutamine (Thermo Fisher Scientific), and 1% Streptomycine, 2% CTS Immune Cell SR (Thermo Fisher Scientific) were added to OpTmizer CTS T-Cell Expansion basal medium (Thermo Fisher Scientific) to prepare a basal cell culture medium. To this was added 20 IU/mL or 40 IU/mL of MACS GMP IL-2 (Miltenyi Biotec). Dimethyl Sulfoxide (DMSO) (Wako Pure Chemical Industries, Ltd) was added to the respective media to obtain the designated levels and used. After Leukopak (Hemacare) was thawed, the cells were diluted in CAR-T cell culture medium to less than or equal to 2.0×10^6 cells/mL (pre-production raw material). Cell suspension: MACS GMP T-Cell TransACT (Miltenyi Biotec)=17.5:1 were seeded in culture bags and cultured in about 48 hours (cell activation step). The activated cells were diluted in culture medium using a LOVO Cell processing system (Fresenius Kabi) or a centrifuge, seeded under 6.07×10^5 cells/cm^2 in culture bags that had been previously coated with Retronectin® (Takara Bio Co., Ltd.) and a retrovirus into which a CAR gene or a CAR gene, a IL-7 gene, and a CCL19 gene had been introduced, and cultured until the next day (gene transfer process). Culture bottles (G-REX, Wilson Wolf) were seeded under 2.2×10^6 cells/cm^2 and cultured for 3-7 days to produce CAR-T cells (final products). The CAR gene used has the base sequence encoding the amino acid sequence shown in SEQ ID NO: 1, IL-7 gene used has the base sequence encoding the amino acid sequence shown in SEQ ID NO: 2, and CCL19 gene used has the base sequence encoding the amino acid sequence shown in SEQ ID NO: 3 (the same applies to the following SK-HEP-1 cells). See Table 1 for the afore mentieond sequences. CAR introduction rates into T cells were determined using CAR-targeting antigens on a BD FACSCanto II flow cytometer (BD Biosciences). The immunophenotype of T cells was measured using an anti-CD4 antibody (clone SK3, cat #344604, BioLegend), an anti-CD8 antibody (clone SK1, cat #344710, BioLegend), an anti-CCR7 antibody (clone G043H7, cat #353204, BioLegend), an anti-CD45RA antibody (clone L48, cat #337167, BD Biosciences), an anti-CD27 antibody (clone 0323, cat #302836, BioLegend), and an anti-CD95 antibody (clone DX2, cat #305612, BioLegend), and CCR7/CD45RA/CD27/CD95 positive cells in a CD4 positive or CD8 positive T cell population were used as stem cell memory T cells, and CCR7/CD45RA positive cells other than these were used as naive T cells.

T cells [2] = test: Rate of introduction of the CAR gene into T cells by flow cytometry (CAR-T production); details: for CAR-positive rate: 0.0037%, 0.011%
Experimental: as §1

SK-HEP-1 cells = test: Introduction of CAR gene into SK-HEP-1 cells, flow cytometry; details: Example 8, 0.1% DMSO in transduction step, FIG. 8A
Experimental: SK-HEP-1 cell culture medium: MEM, L-Gln (+) (Thermo Fisher Scientific) was prepared by adding 10% FBS (Biosera Co., Ltd.), 1% Non-essential amino acids (Fujifilm Wako Pure Chemical Industries, Ltd.), 1% Penicillin-Streptomycin solution (Fujifilm Wako Pure Chemical Industries, Ltd.), and 1 mM Sodium pyruvate (Fujifilm Wako Pure Chemical Industries, Ltd.). Dimethyl Sulfoxide (DMSO) (Wako Pure Chemical Industries, Ltd) was added to the respective media to obtain the designated levels and used. SK-HEP-1 cells (ATCC) were diluted with SK-HEP-1 cell culture medium so that they were 2.0×10^6 cells/mL or less, seeded under 6.07×10^5 cells/cm^2 on culture plates that had been coated with retronectin (Takara Bio Co., Ltd.) and a retrovirus into which a CAR gene had been introduced, and cultured for 4 days to introduce the CAR gene into SK-HEP-1 cells. CAR-T cells were produced as described above. SK-Hep-1 cell expressing CAR were produced as discussed above. 0.1% DMSO was added in the transduction_step during its production. After production, the rate of introduction of the CAR-gene was measured by flow cytometry.

[3] = Example 1, armored, activation step, 0.0037%, 0.011%, 0.033%, 0.1% DMSO vs no DMSO
[4] = Example 1, armored, activation step, 0.011%, 0.033%, 0.1% DMSO vs no DMSO
[5] = Example 3, armored, transduction step, 0.011%, 0.033%, 0.1%, 0.3% DMSO vs no DMSO
[6] = Example 6, unarmored, ex vivo expansion step, 0.3% DMSO vs no DMSO
[7] = Example 7, unarmored, ex vivo expansion step, 0.6-2.7% DMSO vs no DMSO

C[S+](C)[O-] [DMSO, dimethyl sulfoxide]
increased: CD8 positive stem cell memory T cells (T cells [1]; Example 3, armored, transduction step, 0.0037%, 0.011%, 0.033%, 0.1% DMSO vs no DMSO) | CD8 positive naive T cells (T cells [1]; Example 3, armored, transduction step, 0.011% and 0.033% DMSO vs no DMSO) | CD8 positive stem cell memory T cells (T cells [1]; Example 4, unarmored, transduction step, 0.0037%, 0.011%, 0.033%, 0.01% and 0.3% DMSO vs no DMSO) | CD4 positive naive T cells (T cells [1]; Example 4, unarmored, transduction step, 0.011% and 0.033% DMSO vs no DMSO) | CD4 positive naive T cells (T cells [1]; [6]) | CD4 positive stem cell memory T cells (T cells [1]; [6]) | CD4 positive naive T cells (T cells [1]; [7]) | CD4 positive stem cell memory T cells (T cells [1]; [7]) | CD8 positive naive T cells (T cells [1]; [7]) | CD8 positive stem cell memory T cells (T cells [1]; [7]) | CAR-positive rate (T cells [2]; Example 4, unarmored, gene transduction step, 0.033% DMSO vs no DMSO group)
significantly improves: mCherry transduction efficiency (NK92 cells; Example 9, NK92 cells, 0.03% and 0.1% DMSO in pre-culture step 2 days before transduction, FIG. 9B) | CAR transduction efficiency (CAR-T) (T cells [2]; Example 8, 0.1% DMSO in transduction step, FIG. 8B)
improved: transduction efficiency in NK92 cells (mCherry positive cells) (NK92 cells; FIG. 9B legend, 0.01%-0.1% DMSO added in preculture step before transduction)
significantly increased: CD8 positive naive T cells (T cells [1]; [3]) | CD8 positive stem cell memory T cells (T cells [1]; [3]) | CD4 positive naive T cells (T cells [1]; [4]) | CD4 positive stem cell memory T cells (T cells [1]; [4]) | CD4 positive stem cell memory T cells (T cells [1]; Example 2, unarmored, activation step, 0.0037%, 0.011%, 0.033%, 0.1%, 0.3% DMSO vs no DMSO) | CD8 positive stem cell memory T cells (T cells [1]; Example 2, unarmored, activation step, 0.1% and 0.3% DMSO vs no DMSO) | CD4 positive naive T cells (T cells [1]; [5]) | CD4 positive stem cell memory T cells (T cells [1]; [5]) | CD8 positive stem cell memory T cells (T cells [1]; Example 5, armored, ex vivo expansion step, 0.3% DMSO vs no DMSO) | CAR-positive rate (T cells [2]; Example 1, CAR-T expressing IL-7 and CCL19 (armored), 0.033%, 0.1% DMSO in activation step (heading, FIG. 1; text says transduction step), vs no DMSO group) | CAR-positive rate (T cells [2]; Example 2, CAR-T (unarmored), 0.033%, 0.1%, 0.3% DMSO in activation step (heading, FIG. 2; text says transduction step), vs no DMSO group) | CAR-positive rate (T cells [2]; Example 3, armored (IL-7, CCL19), gene transduction step, 0.033%, 0.1% DMSO vs no DMSO group)
suppresses: CAR gene transduction in SK-Hep-1 (SK-HEP-1 cells)
